Test results reported in patent US9187472B2 (AbbVie Inc., priority 2012, dated 2015).

How the values were obtained:
[1] = biological target: NAMPT (human, recombinant, C-terminally His-tagged) (Homo sapiens, UniProt P43490); experiment: Time-Resolved Fluorescence Resonance Energy Transfer (TR-FRET) Binding Assay of NAMPT; settings: without substrates; 6.8 nM NAMPT, 200 nM probe, 3 hours equilibration
How it was run: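 Competitive binding against an Oregon Green 488 tracer (200 nM), 6.8 nM His-tagged enzyme, 1 nM Tb antibody, 2% DMSO, 3 h at RT. IC50 derived from TR-FRET ratios.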

NAMPT = NAMPT (Homo sapiens, UniProt P43490); experiment: TR-FRET Binding Assay of NAMPT with PRPP; settings: with 200 μM PRPP and 2.5 mM ATP; 2 nM NAMPT, 2 nM probe, 16 hours equilibration
Sequence of NAMPT (P43490 whole entry): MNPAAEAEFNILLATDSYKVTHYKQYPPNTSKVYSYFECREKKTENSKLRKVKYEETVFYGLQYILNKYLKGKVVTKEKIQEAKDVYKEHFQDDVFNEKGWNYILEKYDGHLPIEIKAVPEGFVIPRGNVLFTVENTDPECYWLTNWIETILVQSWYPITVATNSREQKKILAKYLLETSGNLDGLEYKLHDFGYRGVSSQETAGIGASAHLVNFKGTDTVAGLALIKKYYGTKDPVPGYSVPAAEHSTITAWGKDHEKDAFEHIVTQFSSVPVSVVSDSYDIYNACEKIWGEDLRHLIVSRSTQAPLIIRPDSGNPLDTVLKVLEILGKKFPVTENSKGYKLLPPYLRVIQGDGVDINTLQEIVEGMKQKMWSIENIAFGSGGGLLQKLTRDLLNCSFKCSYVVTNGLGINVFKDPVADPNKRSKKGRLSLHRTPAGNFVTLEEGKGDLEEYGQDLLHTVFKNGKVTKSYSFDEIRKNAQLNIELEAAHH
How it was run: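 Read-out is TR-FRET after a 16 h equilibration allowing possible compound modification by the enzyme. Final mix: 2 nM NAMPT, 2 nM probe, 1 nM Tb-anti-His antibody, 200 μM PRPP, 2.5 mM ATP, 2% DMSO.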

PC3 cells = experiment: NAMPT Cell Proliferation Assay; format: cell-based; settings: Homo sapiens, PC-3, 120 h, 5 days incubation, cell viability by Cell Titer Glo
How it was run: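 PC3 cells were plated at 500 cells/well in RPMI with 10% heat-inactivated FBS, left to attach overnight, then given compounds in 10-fold dilutions from 10 μM to 1×10^−5 μM. After 5 days at 37° C and 5% CO2, viability was read by luminescence and IC50s came from sigmoidal fits of percent inhibition.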

Sequence of NAMPT (human, recombinant, C-terminally His-tagged) (P43490 whole entry): as above

IC50 [1] [nM]	IC50 (NAMPT) [nM]	IC50 (PC3 cells) [nM]	Structure (SMILES)
11.2	1.53	2.21	O=C(NCc1cn2ccnc2cn1)c1ccc(C2CCN(C(=O)c3cc(F)ccc3F)CC2)cc1 [Example 813, 4-[1-(2,5-difluorobenzoyl)piperidin-4-yl]-N-(imidazo[1,2-a]pyrazin-6-ylmethyl)benzamide]
68.7	1.63	4.5	CC1(C(=O)N2CCC(c3ccc(C(=O)NCc4cn5ccnc5cn4)cc3)CC2)CC1 [Example 814, N-(imidazo[1,2-a]pyrazin-6-ylmethyl)-4-{1-[(1-methylcyclopropyl)carbonyl]piperidin-4-yl}benzamide]
53	1.93	5.89	O=C(NCc1cn2ccnc2cn1)c1ccc(C2CCN(C(=O)CC(F)(F)F)CC2)cc1 [Example 815, N-(imidazo[1,2-a]pyrazin-6-ylmethyl)-4-[1-(3,3,3-trifluoropropanoyl)piperidin-4-yl]benzamide]
46.1	1.58	4.82	CC(C)CC(=O)N1CCC(c2ccc(C(=O)NCc3cn4ccnc4cn3)cc2)CC1 [Example 816, N-(imidazo[1,2-a]pyrazin-6-ylmethyl)-4-[1-(3-methylbutanoyl)piperidin-4-yl]benzamide]
65.8	1.6	9.27	CC(C)S(=O)(=O)N1CCC(c2ccc(C(=O)NCc3cn4ccnc4cn3)cc2)CC1 [Example 817, N-(imidazo[1,2-a]pyrazin-6-ylmethyl)-4-[1-(propan-2-ylsulfonyl)piperidin-4-yl]benzamide]
1520	0.644	716	CC(C)Cn1nccc1-c1ccc(C(=O)NCc2ccn3ccnc3c2)o1 [Example 818, N-(imidazo[1,2-a]pyridin-7-ylmethyl)-5-[1-(2-methylpropyl)-1H-pyrazol-5-yl]furan-2-carboxamide]
19.9	0.624	13	CC(C)Cn1cc(-c2ccc(C(=O)NCc3cn4ccnc4cn3)o2)cn1 [Example 819, N-(imidazo[1,2-a]pyrazin-6-ylmethyl)-5-[1-(2-methylpropyl)-1H-pyrazol-4-yl]furan-2-carboxamide]
499	9.28	802	CC(C)Cn1cc(-c2ccc(C(=O)NCc3ccc4ncnn4c3)o2)cn1 [Example 820, 5-[1-(2-methylpropyl)-1H-pyrazol-4-yl]-N-([1,2,4]triazolo[1,5-a]pyridin-6-ylmethyl)furan-2-carboxamide]
663	0.284	192	CC(C)CCn1nccc1-c1ccc(C(=O)NCc2ccn3ccnc3c2)o1 [Example 821, N-(imidazo[1,2-a]pyridin-7-ylmethyl)-5-[1-(3-methylbutyl)-1H-pyrazol-5-yl]furan-2-carboxamide]
104	3.46	71.1	CC1(Cn2cc(-c3ccc(C(=O)NCc4ccc5ncnn5c4)o3)cn2)CCOCC1 [Example 822, 5-{1-[(4-methyltetrahydro-2H-pyran-4-yl)methyl]-1H-pyrazol-4-yl}-N-([1,2,4]triazolo[1,5-a]pyridin-6-ylmethyl)furan-2-carboxamide]
189	0.356	4.62	COC[C@H]1CCCN1C(=O)c1ccc(C(=O)NCc2ccn3ccnc3c2)s1 [Example 823, N-(imidazo[1,2-a]pyridin-7-ylmethyl)-5-{[(2R)-2-(methoxymethyl)pyrrolidin-1-yl]carbonyl}thiophene-2-carboxamide]
118	0.566	12.4	CC(C)CC1CCCN1C(=O)c1ccc(C(=O)NCc2ccn3ccnc3c2)s1 (stereo not drawn) [Example 824, N-(imidazo[1,2-a]pyridin-7-ylmethyl)-5-{[2-(2-methylpropyl)pyrrolidin-1-yl]carbonyl}thiophene-2-carboxamide]
